{"source": "PubChem BioAssay (NCI)", "assay_in_all_cases": "growth of human tumour cells (NCI), 48 h", "key": {"[1]": {"system": "UACC-257 melanoma"}, "[2]": {"system": "SF-539 CNS"}, "[3]": {"system": "PC-3 prostate"}, "[4]": {"system": "MOLT-4 leukemia"}, "[5]": {"system": "UO-31 renal"}, "[6]": {"system": "NCI-H23 lung"}, "[7]": {"system": "MCF7 breast"}, "[8]": {"system": "NCI/ADR-RES ovarian"}, "[9]": {"system": "ACHN renal"}, "[10]": {"system": "BT-549 breast"}, "[11]": {"system": "HL-60(TB) leukemia"}, "[12]": {"system": "A549 NSCLC"}, "[13]": {"system": "MDA-MB-231 breast"}, "[14]": {"system": "OVCAR-3 ovarian"}, "[15]": {"system": "RPMI-8226 leukemia"}, "[16]": {"system": "HCC-2998 colon"}, "[17]": {"system": "SK-OV-3 ovarian"}, "[18]": {"system": "SF-295 CNS"}, "[19]": {"system": "CAKI-1 renal"}, "[20]": {"system": "HCT-15 colon"}, "[21]": {"system": "SF-268 CNS"}, "[22]": {"system": "SN12C renal"}, "[23]": {"system": "NCI-H226 lung"}, "[24]": {"system": "CCRF-CEM leukemia"}, "[25]": {"system": "NCI-H460 lung"}, "[26]": {"system": "SNB-19 CNS"}, "[27]": {"system": "KM12 colon"}, "[28]": {"system": "TK-10 renal"}, "[29]": {"system": "A498 renal"}, "[30]": {"system": "EKVX NSCLC"}, "[31]": {"system": "MDA-N"}, "[32]": {"system": "SNB-75 CNS"}, "[33]": {"system": "M14 melanoma"}, "[34]": {"system": "HOP-62 NSCLC"}, "[35]": {"system": "HOP-92 NSCLC"}, "[36]": {"system": "RXF 393 renal"}, "[37]": {"system": "UACC-62 melanoma"}, "[38]": {"system": "OVCAR-5 ovarian"}, "[39]": {"system": "OVCAR-8 ovarian"}, "[40]": {"system": "SK-MEL-28 melanoma"}, "[41]": {"system": "OVCAR-4 ovarian"}, "[42]": {"system": "K-562 leukemia"}, "[43]": {"system": "SR leukemia"}, "[44]": {"system": "SK-MEL-2 melanoma"}, "[45]": {"system": "MDA-MB-435"}, "[46]": {"system": "U251 CNS"}, "[47]": {"system": "LOX IMVI melanoma"}, "[48]": {"system": "MALME-3M melanoma"}, "[49]": {"system": "T-47D breast"}, "[50]": {"system": "HCT-116 colon"}, "[51]": {"system": "COLO 205 colon"}, "[52]": {"system": "SK-MEL-5 melanoma"}, "[53]": {"system": "786-0 renal"}, "[54]": {"system": "HS 578T breast"}, "[55]": {"system": "HT29 colon"}, "[56]": {"system": "DU-145 prostate"}, "[57]": {"system": "SW-620 colon"}}, "note": "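Each compound was tested at five concentrations against cells in 96-well plates for 48 hours. TGI denotes the concentration required for complete inhibition of growth.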", "data": [{"smiles": "Cc1ccc(-c2csc(=Nc3c(C)n(C)n(-c4ccccc4)c3=O)n2CCO)cc1", "values": [{"measurement": "TGI", "setting": "[1]", "value": "> 100", "unit": "µM"}, {"measurement": "TGI", "setting": "[2]", "value": "> 100", "unit": "µM"}, {"measurement": "TGI", "setting": "[3]", "value": "> 100", "unit": "µM"}, {"measurement": "TGI", "setting": "[4]", "value": "> 100", "unit": "µM"}, {"measurement": "TGI", "setting": "[5]", "value": "> 100", "unit": "µM"}, {"measurement": "TGI", "setting": "[6]", "value": "> 100", "unit": "µM"}, {"measurement": "TGI", "setting": "[7]", "value": "> 100", "unit": "µM"}, {"measurement": "TGI", "setting": "[8]", "value": "> 100", "unit": "µM"}, {"measurement": "TGI", "setting": "[9]", "value": "> 100", "unit": "µM"}, {"measurement": "TGI", "setting": "[10]", "value": "> 100", "unit": "µM"}, {"measurement": "TGI", "setting": "[11]", "value": "> 100", "unit": "µM"}, {"measurement": "TGI", "setting": "[12]", "value": "> 100", "unit": "µM"}, {"measurement": "TGI", "setting": "[13]", "value": "> 100", "unit": "µM"}, {"measurement": "TGI", "setting": "[14]", "value": "> 100", "unit": "µM"}, {"measurement": "TGI", "setting": "[15]", "value": "> 100", "unit": "µM"}, {"measurement": "TGI", "setting": "[16]", "value": "> 100", "unit": "µM"}, {"measurement": "TGI", "setting": "[17]", "value": "> 100", "unit": "µM"}, {"measurement": "TGI", "setting": "[18]", "value": "> 100", "unit": "µM"}, {"measurement": "TGI", "setting": "[19]", "value": "> 100", "unit": "µM"}, {"measurement": "TGI", "setting": "[20]", "value": "> 100", "unit": "µM"}, {"measurement": "TGI", "setting": "[21]", "value": "> 100", "unit": "µM"}, {"measurement": "TGI", "setting": "[22]", "value": "> 100", "unit": "µM"}, {"measurement": "TGI", "setting": "[23]", "value": "> 100", "unit": "µM"}, {"measurement": "TGI", "setting": "[24]", "value": "> 100", "unit": "µM"}, {"measurement": "TGI", "setting": "[25]", "value": "> 100", "unit": "µM"}, {"measurement": "TGI", "setting": "[26]", "value": "> 100", "unit": "µM"}, {"measurement": "TGI", "setting": "[27]", "value": "> 100", "unit": "µM"}, {"measurement": "TGI", "setting": "[28]", "value": "> 100", "unit": "µM"}, {"measurement": "TGI", "setting": "[29]", "value": "> 100", "unit": "µM"}, {"measurement": "TGI", "setting": "[30]", "value": "> 100", "unit": "µM"}, {"measurement": "TGI", "setting": "[31]", "value": "> 100", "unit": "µM"}, {"measurement": "TGI", "setting": "[32]", "value": "> 100", "unit": "µM"}, {"measurement": "TGI", "setting": "[33]", "value": "> 100", "unit": "µM"}, {"measurement": "TGI", "setting": "[34]", "value": "> 100", "unit": "µM"}, {"measurement": "TGI", "setting": "[35]", "value": "> 100", "unit": "µM"}, {"measurement": "TGI", "setting": "[36]", "value": "> 100", "unit": "µM"}, {"measurement": "TGI", "setting": "[37]", "value": "> 100", "unit": "µM"}, {"measurement": "TGI", "setting": "[38]", "value": "> 100", "unit": "µM"}, {"measurement": "TGI", "setting": "[39]", "value": "> 100", "unit": "µM"}, {"measurement": "TGI", "setting": "[40]", "value": "> 100", "unit": "µM"}, {"measurement": "TGI", "setting": "[41]", "value": "> 100", "unit": "µM"}, {"measurement": "TGI", "setting": "[42]", "value": "> 100", "unit": "µM"}, {"measurement": "TGI", "setting": "[43]", "value": "> 100", "unit": "µM"}, {"measurement": "TGI", "setting": "[44]", "value": "> 100", "unit": "µM"}, {"measurement": "TGI", "setting": "[45]", "value": "> 100", "unit": "µM"}, {"measurement": "TGI", "setting": "[46]", "value": "> 100", "unit": "µM"}]}, {"smiles": "OCCN(CCO)c1ccc2c(c1)Cc1ccccc1-2", "values": [{"measurement": "TGI", "setting": "[1]", "value": 96.7, "unit": "µM"}, {"measurement": "TGI", "setting": "[2]", "value": "> 100", "unit": "µM"}, {"measurement": "TGI", "setting": "[47]", "value": "> 100", "unit": "µM"}, {"measurement": "TGI", "setting": "[3]", "value": "> 100", "unit": "µM"}, {"measurement": "TGI", "setting": "[4]", "value": "> 100", "unit": "µM"}, {"measurement": "TGI", "setting": "[48]", "value": "> 100", "unit": "µM"}, {"measurement": "TGI", "setting": "[5]", "value": "> 100", "unit": "µM"}, {"measurement": "TGI", "setting": "[6]", "value": "> 100", "unit": "µM"}, {"measurement": "TGI", "setting": "[7]", "value": 60.5, "unit": "µM"}, {"measurement": "TGI", "setting": "[8]", "value": "> 100", "unit": "µM"}, {"measurement": "TGI", "setting": "[9]", "value": "> 100", "unit": "µM"}, {"measurement": "TGI", "setting": "[11]", "value": "> 100", "unit": "µM"}, {"measurement": "TGI", "setting": "[12]", "value": "> 100", "unit": "µM"}, {"measurement": "TGI", "setting": "[13]", "value": "> 100", "unit": "µM"}, {"measurement": "TGI", "setting": "[14]", "value": 45.9, "unit": "µM"}, {"measurement": "TGI", "setting": "[15]", "value": "> 100", "unit": "µM"}, {"measurement": "TGI", "setting": "[16]", "value": "> 100", "unit": "µM"}, {"measurement": "TGI", "setting": "[49]", "value": 57.8, "unit": "µM"}, {"measurement": "TGI", "setting": "[17]", "value": "> 100", "unit": "µM"}, {"measurement": "TGI", "setting": "[18]", "value": "> 100", "unit": "µM"}, {"measurement": "TGI", "setting": "[19]", "value": 32, "unit": "µM"}, {"measurement": "TGI", "setting": "[20]", "value": "> 100", "unit": "µM"}, {"measurement": "TGI", "setting": "[21]", "value": "> 100", "unit": "µM"}, {"measurement": "TGI", "setting": "[50]", "value": "> 100", "unit": "µM"}, {"measurement": "TGI", "setting": "[22]", "value": "> 100", "unit": "µM"}, {"measurement": "TGI", "setting": "[23]", "value": "> 100", "unit": "µM"}, {"measurement": "TGI", "setting": "[24]", "value": "> 100", "unit": "µM"}, {"measurement": "TGI", "setting": "[25]", "value": 50, "unit": "µM"}, {"measurement": "TGI", "setting": "[26]", "value": "> 100", "unit": "µM"}, {"measurement": "TGI", "setting": "[27]", "value": "> 100", "unit": "µM"}, {"measurement": "TGI", "setting": "[51]", "value": 35.7, "unit": "µM"}, {"measurement": "TGI", "setting": "[28]", "value": 55, "unit": "µM"}, {"measurement": "TGI", "setting": "[29]", "value": 80.5, "unit": "µM"}, {"measurement": "TGI", "setting": "[30]", "value": "> 100", "unit": "µM"}, {"measurement": "TGI", "setting": "[52]", "value": "> 100", "unit": "µM"}, {"measurement": "TGI", "setting": "[53]", "value": "> 100", "unit": "µM"}, {"measurement": "TGI", "setting": "[31]", "value": "> 100", "unit": "µM"}, {"measurement": "TGI", "setting": "[33]", "value": "> 100", "unit": "µM"}, {"measurement": "TGI", "setting": "[34]", "value": "> 100", "unit": "µM"}, {"measurement": "TGI", "setting": "[35]", "value": 73.1, "unit": "µM"}, {"measurement": "TGI", "setting": "[54]", "value": "> 100", "unit": "µM"}, {"measurement": "TGI", "setting": "[55]", "value": 37.8, "unit": "µM"}, {"measurement": "TGI", "setting": "[37]", "value": "> 100", "unit": "µM"}, {"measurement": "TGI", "setting": "[38]", "value": "> 100", "unit": "µM"}, {"measurement": "TGI", "setting": "[39]", "value": "> 100", "unit": "µM"}, {"measurement": "TGI", "setting": "[40]", "value": "> 100", "unit": "µM"}, {"measurement": "TGI", "setting": "[56]", "value": "> 100", "unit": "µM"}, {"measurement": "TGI", "setting": "[41]", "value": "> 100", "unit": "µM"}, {"measurement": "TGI", "setting": "[57]", "value": "> 100", "unit": "µM"}, {"measurement": "TGI", "setting": "[42]", "value": "> 100", "unit": "µM"}, {"measurement": "TGI", "setting": "[43]", "value": "> 100", "unit": "µM"}, {"measurement": "TGI", "setting": "[44]", "value": 63.2, "unit": "µM"}, {"measurement": "TGI", "setting": "[45]", "value": "> 100", "unit": "µM"}, {"measurement": "TGI", "setting": "[46]", "value": "> 100", "unit": "µM"}]}]}
